Measurements published in patent US8980926B2, “2-aminoindole compounds and methods for the treatment of malaria” (Genzyme Corporation, priority 2009, dated 2015).

Test system: P. falciparum strain 3D7
Experiment: In vitro potency against P. falciparum strain 3D7 (SYBR green/DAPI)
Assay type: cell-based
Details: Plasmodium falciparum, reductions in parasitemia, read-out: IC50 values

Row | SMILES | IC50 [nM]
1 | NC1=Nc2ccc(Cl)cc2C1(O)c1ccccc1-c1ccccc1Br (stereo not shown) [Compound 115] | 1 to 100
2 | NC1=Nc2ccc(Cl)cc2C1(O)C1CCCCC1 (stereo not shown) [Compound 116] | 100 to 500
3 | NC1=Nc2ccc(Cl)cc2C1(O)c1cccc2ccncc12 (stereo not shown) [Compound 117] | 100 to 500
4 | NC1=Nc2ccc(Cl)cc2C1(O)c1ccccc1Br (stereo not shown) [Compound 118] | 100 to 500
5 | NC1=Nc2ccc(Cl)cc2C1(O)c1ccccc1N1CCOCC1 (stereo not shown) [Compound 119] | 1 to 100
6 | CS(=O)(=O)c1ccccc1C1(O)C(N)=Nc2ccc(Cl)cc21 (stereo not shown) [Compound 120] | 500 to 1000
7 | CSc1ccccc1C1(O)C(N)=Nc2ccc(Cl)cc21 (stereo not shown) [Compound 121] | 1 to 100
8 | COc1ccccc1C1(O)C(N)=Nc2ccc(C)cc21 (stereo not shown) [Compound 122] | 100 to 500
9 | COc1ccccc1C1(O)C(N)=Nc2ccc(Br)cc21 (stereo not shown) [Compound 123] | 1 to 100
10 | NC1=Nc2ccc(Br)cc2C1(O)Cc1ccccc1 (stereo not shown) [Compound 124] | 100 to 500
11 | C#Cc1ccc2c(c1)C(O)(c1ccc(C3(c4ccccc4)OCCO3)cc1)C(N)=N2 (stereo not shown) [Compound 125] | 100 to 500
12 | COc1ccc(CC2(O)C(N)=Nc3ccccc32)cc1 (stereo not shown) [Compound 126] | 100 to 500
13 | NC1=Nc2cccc(Cl)c2C1(O)c1cccc2ccccc12 (stereo not shown) [Compound 127] | 500 to 1000
14 | Cn1cc(CC2(O)C(N)=Nc3ccccc32)c2ccccc21 (stereo not shown) [Compound 128] | 100 to 500
15 | NC1=Nc2ccc(Cl)cc2C1(O)c1ccccc1-c1ccccc1 (stereo not shown) [Compound 129] | 100 to 500
16 | NC1=Nc2ccc(Cl)cc2C1(O)c1ccccc1N1CCCCC1 (stereo not shown) [Compound 130] | 100 to 500
17 | Cc1ccc2c(c1)C(O)(Cc1ccccc1)C(N)=N2 (stereo not shown) [Compound 131] | 1 to 100
18 | COc1ccc2c(c1)C(O)(c1ccccc1OC)C(N)=N2 (stereo not shown) [Compound 132] | 100 to 500
19 | COc1ccc2c(c1)C(O)(Cc1ccccc1)C(N)=N2 (stereo not shown) [Compound 133] | 1 to 100
20 | COc1ccccc1CC1(O)C(N)=Nc2ccc(Cl)cc21 (stereo not shown) [Compound 134] | 1 to 100
21 | Cn1ncc2cccc(C3(O)C(N)=Nc4ccc(Cl)cc43)c21 (stereo not shown) [Compound 135] | 1 to 100
22 | Cc1csc2c(C3(O)C(N)=Nc4ccc(Cl)cc43)cccc12 (stereo not shown) [Compound 136] | 1 to 100
23 | NC1=Nc2ccc(Cl)cc2C1(O)c1nc2ccccc2s1 (stereo not shown) [Compound 137] | 100 to 500
24 | Cn1ncc2ccc(C3(O)C(N)=Nc4ccc(Cl)cc43)cc21 (stereo not shown) [Compound 138] | 100 to 500
25 | NC1=Nc2ccc(Cl)cc2C1(O)Cc1nc2ccccc2s1 (stereo not shown) [Compound 139] | 1 to 100

Row | SMILES | IC50 [nM]
26 | COc1ccc(Cl)cc1C1(O)C(N)=Nc2ccc(Cl)cc21 (stereo not shown) [Compound 140] | 1 to 100
27 | CCOc1ccccc1C1(O)C(N)=Nc2ccc(Cl)cc21 (stereo not shown) [Compound 141] | 1 to 100
28 | Cc1ccc2c(c1)C(O)(c1cccc3ccsc13)C(N)=N2 (stereo not shown) [Compound 143] | 1 to 100
29 | NC1=Nc2ccc(Cl)cc2C1(O)c1cc2ccccc2o1 (stereo not shown) [Compound 144] | 1 to 100
30 | COc1ccc(F)cc1C1(O)C(N)=Nc2ccc(Cl)cc21 (stereo not shown) [Compound 145] | 1 to 100
31 | CCOc1ccc(OC)cc1C1(O)C(N)=Nc2ccc(Cl)cc21 (stereo not shown) [Compound 147] | 1 to 100
32 | NC1=Nc2ccc(Cl)cc2C1(O)c1ccc2ncsc2c1 (stereo not shown) [Compound 148] | 100 to 500
33 | CN1CCN(c2ccccc2C2(O)C(N)=Nc3ccc(Cl)cc32)CC1 (stereo not shown) [Compound 149] | 500 to 1000
34 | NC1=Nc2ccc(Cl)cc2C1(O)c1cccc2ccoc12 (stereo not shown) [Compound 150] | 1 to 100
35 | NC1=Nc2ccc(Cl)cc2C1(O)c1ccccc1OC1CCC1 (stereo not shown) [Compound 151] | 1 to 100
36 | COc1ccc(OC(C)C)c(C2(O)C(N)=Nc3ccc(Cl)cc32)c1 (stereo not shown) [Compound 152] | 1 to 100
37 | COc1ccc2c(c1)C(O)(c1cc3ccccc3s1)C(N)=N2 (stereo not shown) [Compound 153] | 1 to 100
38 | CC(C)Oc1ccc(F)cc1C1(O)C(N)=Nc2ccc(Cl)cc21 (stereo not shown) [Compound 154] | 1 to 100
39 | CCOc1ccc(Cl)cc1C1(O)C(N)=Nc2ccc(Cl)cc21 (stereo not shown) [Compound 155] | 1 to 100
40 | CC(C)Oc1ccc(Cl)cc1C1(O)C(N)=Nc2ccc(Cl)cc21 (stereo not shown) [Compound 156] | 1 to 100
41 | NC1=Nc2ccc(Cl)cc2C1(O)c1cc(Cl)ccc1OC1CCC1 (stereo not shown) [Compound 157] | 1 to 100
42 | COc1ccc(OC2CCC2)c(C2(O)C(N)=Nc3ccc(Cl)cc32)c1 (stereo not shown) [Compound 158] | 1 to 100
43 | COc1ccc2c(c1)C(O)(c1cccc3ccsc13)C(N)=N2 (stereo not shown) [Compound 159] | 1 to 100
44 | NC1=Nc2ccc(Cl)cc2C1(O)Cc1cc2ccccc2o1 (stereo not shown) [Compound 160] | 1 to 100
45 | NC1=Nc2ccc(Cl)cc2C1(O)c1ccccc1N1CCCCCC1 (stereo not shown) [Compound 162] | 1 to 100
46 | CCSc1ccccc1C1(O)C(N)=Nc2ccc(Cl)cc21 (stereo not shown) [Compound 163] | 1 to 100
47 | NC1=Nc2ccc(Cl)cc2C1(O)c1cc(F)ccc1OC1CCC1 (stereo not shown) [Compound 164] | 1 to 100
48 | COc1ccc(OC2CC2)c(C2(O)C(N)=Nc3ccc(Cl)cc32)c1 (stereo not shown) [Compound 165] | 1 to 100
49 | NC1=Nc2ccc(Br)cc2C1(O)c1cccc2ccsc12 (stereo not shown) [Compound 166] | 1 to 100
50 | COc1ccc2c(c1)C(O)(c1ccccc1N1CCOCC1)C(N)=N2 (stereo not shown) [Compound 167] | 100 to 500

Row | SMILES | IC50 [nM]
51 | CC(C)c1ccccc1CC1(O)C(N)=Nc2ccc(Cl)cc21 (stereo not shown) [Compound 168] | 1 to 100
52 | CSc1ccc(Cl)cc1C1(O)C(N)=Nc2ccc(Cl)cc21 (stereo not shown) [Compound 169] | 1 to 100
53 | CC(C)Sc1ccccc1C1(O)C(N)=Nc2ccc(Cl)cc21 (stereo not shown) [Compound 170] | 1 to 100
54 | CCSc1ccc(Cl)cc1C1(O)C(N)=Nc2ccc(Cl)cc21 (stereo not shown) [Compound 171] | 1 to 100
55 | CC(C)n1ncc2cccc(C3(O)C(N)=Nc4ccc(Cl)cc43)c21 (stereo not shown) [Compound 172] | 500 to 1000
56 | Cc1ccc(CC2(O)C(N)=Nc3ccc(Cl)cc32)o1 (stereo not shown) [Compound 173] | 100 to 500
57 | CN(C)c1ccc(Cl)cc1C1(O)C(N)=Nc2ccc(Cl)cc21 (stereo not shown) [Compound 174] | 1 to 100
58 | NC1=Nc2ccc(Cl)cc2C1(O)c1cc(F)ccc1N1CCCCCC1 (stereo not shown) [Compound 175] | 1 to 100
59 | CC(C)Sc1ccc(Cl)cc1C1(O)C(N)=Nc2ccc(Cl)cc21 (stereo not shown) [Compound 176] | 1 to 100
60 | COc1ccc(OC(C)(C)C)c(C2(O)C(N)=Nc3ccc(Cl)cc32)c1 (stereo not shown) [Compound 177] | 1 to 100
61 | NC1=Nc2ccc(Cl)cc2C1(O)c1cc(F)ccc1N1CCOCC1 (stereo not shown) [Compound 178] | 1 to 100
62 | COc1ccc2c(c1)C(O)(c1cc(F)ccc1N1CCOCC1)C(N)=N2 (stereo not shown) [Compound 179] | 100 to 500
63 | COc1ccc2c(c1)C(O)(C1CC1)C(N)=N2 (stereo not shown) [Compound 180] | 100 to 500
64 | Cc1ccc(CC2(O)C(N)=Nc3ccc(Cl)cc32)s1 (stereo not shown) [Compound 181] | 1 to 100
65 | CCSc1ccc(F)cc1C1(O)C(N)=Nc2ccc(Cl)cc21 (stereo not shown) [Compound 182] | 1 to 100
66 | CC(C)Sc1ccc(F)cc1C1(O)C(N)=Nc2ccc(Cl)cc21 (stereo not shown) [Compound 183] | 1 to 100
67 | NC1=Nc2ccc(Cl)cc2C1(O)c1cc(F)ccc1SC1CCC1 (stereo not shown) [Compound 184] | 1 to 100
68 | NC1=Nc2ccc(Cl)cc2C1(O)c1cc(SC2CCC2)ccc1F (stereo not shown) [Compound 185] | 1 to 100
69 | NC1=Nc2ccc(Cl)cc2C1(O)c1cc(Cl)ccc1F (stereo not shown) [Compound 186] | 1 to 100
70 | NC1=Nc2ccc(Cl)cc2C1(O)c1ccccc1SC1CCC1 (stereo not shown) [Compound 187] | 1 to 100
71 | CC(C)(C)Sc1ccc(F)c(C2(O)C(N)=Nc3ccc(Cl)cc32)c1 (stereo not shown) [Compound 188] | 100 to 500
72 | NC1=Nc2ccc(Cl)cc2C1(O)c1cc(Cl)ccc1SC1CCC1 (stereo not shown) [Compound 189] | 1 to 100
73 | COc1ccc(SC(C)C)c(C2(O)C(N)=Nc3ccc(Cl)cc32)c1 (stereo not shown) [Compound 190] | 1 to 100
74 | CCOc1ccc(OC)cc1C1(O)C(N)=Nc2ccccc21 (stereo not shown) [Compound 191] | 1 to 100
75 | CN(C)c1ccc(F)cc1C1(O)C(N)=Nc2ccc(Cl)cc21 (stereo not shown) [Compound 192] | 1 to 100

Row | SMILES | IC50 [nM]
76 | CC(C)(C)Sc1ccccc1C1(O)C(N)=Nc2ccc(Cl)cc21 (stereo not shown) [Compound 193] | 1 to 100
77 | CC(C)(C)Oc1ccc(F)cc1C1(O)C(N)=Nc2ccc(Cl)cc21 (stereo not shown) [Compound 194] | 1 to 100
78 | COc1ccc(OC2CCC2)c(C2(O)C(N)=Nc3ccccc32)c1 (stereo not shown) [Compound 195] | 1 to 100
79 | CCSc1ccc(OC)cc1C1(O)C(N)=Nc2ccc(Cl)cc21 (stereo not shown) [Compound 196] | 1 to 100
80 | NC1=Nc2ccc(Cl)cc2C1(O)C1CCC1 (stereo not shown) [Compound 197] | 100 to 500
81 | NC1=Nc2ccc(Cl)cc2C1(O)c1cc(F)ccc1F (stereo not shown) [Compound 198] | 100 to 500
82 | NC1=Nc2ccc(Cl)cc2C1(O)c1cc(F)ccc1SC1CC1 (stereo not shown) [Compound 199] | 1 to 100
83 | NC1=Nc2ccc(Cl)cc2C1(O)c1cc(F)ccc1C1CC1 (stereo not shown) [Compound 200] | 1 to 100
84 | COc1cnc(OC)c(C2(O)C(N)=Nc3ccc(Cl)cc32)c1 (stereo not shown) [Compound 201] | 1 to 100
85 | CSc1ccc(F)cc1C1(O)C(N)=Nc2ccc(Cl)cc21 (stereo not shown) [Compound 203] | 1 to 100
86 | CSc1ccc(F)c(C2(O)C(N)=Nc3ccc(Cl)cc32)c1 (stereo not shown) [Compound 204] | 1 to 100
87 | NC1=Nc2ccc(Cl)cc2C1(O)c1ccccc1C1CC1 (stereo not shown) [Compound 205] | 1 to 100
88 | Cc1csc2c(CC3(O)C(N)=Nc4ccc(Cl)cc43)cccc12 (stereo not shown) [Compound 206] | 100 to 500
89 | COc1cnc(F)c(C2(O)C(N)=Nc3ccc(Cl)cc32)c1 (stereo not shown) [Compound 207] | 100 to 500
90 | CC(C)Oc1ccc(F)c(C2(O)C(N)=Nc3ccc(Cl)cc32)c1 (stereo not shown) [Compound 208] | 1 to 100
91 | CCOc1ccc(F)c(C2(O)C(N)=Nc3ccc(Cl)cc32)c1 (stereo not shown) [Compound 209] | 1 to 100
92 | CCOc1cnc(OC)cc1C1(O)C(N)=Nc2ccc(Cl)cc21 (stereo not shown) [Compound 210] | 1 to 100
93 | CCOc1cnc(OC)c(C2(O)C(N)=Nc3ccc(Cl)cc32)c1 (stereo not shown) [Compound 211] | 1 to 100
94 | COc1ccc(C2CC2)c(C2(O)C(N)=Nc3ccc(Cl)cc32)c1 (stereo not shown) [Compound 212] | 1 to 100
95 | NC1=Nc2ccc(Cl)cc2C1(O)c1cc(F)ccc1OC1CCOCC1 (stereo not shown) [Compound 213] | 1 to 100
96 | NC1=Nc2ccc(Cl)cc2C1(O)c1ccccc1N1CCSCC1 (stereo not shown) [Compound 214] | 1 to 100
97 | CC(C)Oc1cc(F)ccc1C1(O)C(N)=Nc2ccc(Cl)cc21 (stereo not shown) [Compound 215] | 1 to 100
